Drawing on BindingDB's records for doi:10.7270/Q2N58JS6 (University of Pittsburgh, 2007), this text covers EC50 for 22 compounds.

Sequence of Serine/threonine-protein kinase PLK1 (P53350 whole entry): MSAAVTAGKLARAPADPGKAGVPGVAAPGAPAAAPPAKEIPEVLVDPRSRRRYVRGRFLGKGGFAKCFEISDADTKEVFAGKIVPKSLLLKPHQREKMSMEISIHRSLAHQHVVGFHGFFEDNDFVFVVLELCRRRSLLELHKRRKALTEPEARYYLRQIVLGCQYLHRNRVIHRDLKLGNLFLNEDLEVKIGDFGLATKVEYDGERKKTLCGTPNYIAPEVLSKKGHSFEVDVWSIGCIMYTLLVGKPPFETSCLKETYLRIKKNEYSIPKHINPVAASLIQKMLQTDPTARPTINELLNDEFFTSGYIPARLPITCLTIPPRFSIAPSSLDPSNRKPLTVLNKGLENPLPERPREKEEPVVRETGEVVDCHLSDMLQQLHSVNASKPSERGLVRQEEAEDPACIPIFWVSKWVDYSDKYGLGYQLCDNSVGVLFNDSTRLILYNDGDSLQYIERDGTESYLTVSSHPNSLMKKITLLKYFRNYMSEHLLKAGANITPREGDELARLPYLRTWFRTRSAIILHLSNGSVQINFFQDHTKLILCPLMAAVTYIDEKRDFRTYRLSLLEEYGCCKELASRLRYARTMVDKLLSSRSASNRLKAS

The test concerns the target Serine/threonine-protein kinase PLK1 (Homo sapiens, UniProt P53350). The test is described as follows: redox cycling hydrogen peroxide generation, dose response, artefact control for Plk1 PBD inhibitor project, biochemical, 1 mM DTT (AID 936).
By EC50 is commonly meant the concentration needed to bring the measured effect to its halfway point. Read a high EC50 as weaker potency. For `O=C1C(=O)c2ccccc2-c2ccccc21`, the EC50 was over 50 µM.
For `Cc1ccc(-n2c(O)c(C=NCCN3CCOCC3)c(=O)[nH]c2=O)cc1` the value was over 50 µM.
In turn, `CCOC(=O)c1ccc(NC(=O)c2c(O)[nH]c(=O)[nH]c2=O)cc1` returned an EC50 of over 50 µM.
In the case of `O=c1[nH]cc(COCc2ccccc2)c(=O)[nH]1`, the EC50 is over 50 µM.
On to `Cc1ccc(NC2=CC(=NS(=O)(=O)c3cccs3)c3ccccc3C2=O)c(C)c1`, for which the EC50 is over 50 µM.
`CN1C(=O)N(C)C(=O)C2(Sc3ccccc3C2=O)C1=O` [1',3'-dimethylspiro[benzothiophene-2,5'-hexahydropyrimidine]-2',3,4',6'-diquinone] had a half-maximal effective concentration (EC50) of over 50 µM.
Compound `Cc1ccc2c(c1)CC1(CN2C)C(=O)NC(=O)N(c2ccccc2C)C1=O` (configuration not stated) [1',6'-dimethyl-1-(2-methylphenyl)spiro[1,3-diazinane-5,3'-2,4-dihydroquinoline]-2,4,6-trione] registered an EC50 of over 50 µM.
As for `Cc1nc2c(=O)n(C)c(=O)nc-2n(C)n1` [1,3,6-Trimethyl-1H-pyrimido[5,4-e][1,2,4]triazine-5,7-dione], the EC50 was over 50 µM.
As for `Cn1c(=O)c2c(ncn2CCCc2ccccc2)n(C)c1=O` [1,3-Dimethyl-7-(3-phenyl-propyl)-3,7-dihydro-purine-2,6-dione], the EC50 is over 50 µM.
`Cc1ccc(CNC(=O)c2cc3c(=O)n(C)c4ccccc4c3n2C)cc1` [1,5-dimethyl-N-[(4-methylphenyl)methyl]-4-oxidanylidene-pyrrolo[3,2-c]quinoline-2-carboxamide]: the concentration giving a half-maximal response (EC50) was over 50 µM.
On to `O=C(Nc1ccccn1)C1CCN(S(=O)(=O)c2cccc3nonc23)CC1` [1-(2,1,3-benzoxadiazol-4-ylsulfonyl)-N-(2-pyridinyl)-4-piperidinecarboxamide], for which the concentration for a half-maximal effect (EC50) was over 50 µM.
Take `Cn1c(=O)c(NCCO)c2c3c(cccc31)C(=O)c1ccccc1-2` [1-(2-Hydroxy-ethylamino)-3-methyl-3H-naphtho[1,2,3-de]quinoline-2,7-dione]: the EC50 was over 50 µM.
For `COc1cc(S(=O)(=O)N2CCCCCC2)ccc1-n1cnnn1` [1-(3-Methoxy-4-tetrazol-1-yl-benzenesulfonyl)-azepane] the value was over 50 µM; for `COc1ccc(CC2NCCC3(O)CCCCC23)cc1` (configuration not stated) [1-(4-Methoxy-benzyl)-octahydro-isoquinolin-4a-ol], over 50 µM; for `O=C1CN(c2ccc(Br)cc2)C(=O)N1CC(=O)N1CCCc2ccccc21` [1-(4-bromophenyl)-3-[2-(3,4-dihydro-1(2H)-quinolinyl)-2-oxoethyl]-2,4-imidazolidinedione], over 50 µM.
Compound `CCCSc1nc(N2CCOCC2)c2c(c1C#N)CCCC2` [1-(4-morpholinyl)-3-(propylthio)-5,6,7,8-tetrahydroisoquinoline-4-carbonitrile] displayed a concentration for a half-maximal effect (EC50) of over 50 µM.
With `CS(=O)(=O)N1CCN(C/C=C/c2ccccc2)CC1` [1-(methylsulfonyl)-4-(3-phenyl-2-propen-1-yl)piperazine], the 50% effective concentration (EC50) is over 50 µM.
As to `Fc1ccc(Cn2nnnc2CN2CCN(C3CCCC3)CC2)cc1` [1-Cyclopentyl-4-[1-(4-fluoro-benzyl)-1H-tetrazol-5-ylmethyl]-piperazine], the EC50 is over 50 µM.
For `NC(=O)C1(N2CCCCC2)CCN(C(=O)NC2CCCCC2)CC1` [1-N-cyclohexyl-4-piperidin-1-ylpiperidine-1,4-dicarboxamide] the value was over 50 µM.
Regarding `CC(=O)N1CCc2cc(Br)cc(S(=O)(=O)NCc3ccccn3)c21` [1-acetyl-5-bromo-N-(2-pyridinylmethyl)-2,3-dihydroindole-7-sulfonamide], the EC50 is over 50 µM.
`CCOC(=O)c1cc2n(c1N)-c1ccccc1C2=O` [1-amino-4-keto-pyrrol[1,2-a]indole-2-carboxylic acid ethyl ester]: the concentration for a half-maximal effect (EC50) is over 50 µM.
`O=C(c1ccc(-n2cnnn2)cc1)N1CCCCC1` [1-piperidinyl-[4-(1-tetrazolyl)phenyl]methanone] gave an EC50 of over 50 µM.
